Laboratory results from patent publication US20230085307A1, “PYRIDAZINONE COMPOUND AND HERBICIDE” (NISSAN CHEMICAL CORPORATION, priority 2019, published 2023).

Assays:
barnyard grass [1] = experiment: Test Example 5: herbicidal effect by foliage application, plastic box (Table 20, symbol H); type: in vivo, barnyard grass (Echinochloa crus-galli); settings: foliage application, 320 g/ha, evaluated three weeks after application
In short: (§1)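 Plants sown in sterilized diluvial soil and grown 14 days in a greenhouse at 25° C to 30° C, then sprayed on the foliage with the compound's emulsion diluted in water to a predetermined herbicide amount. Injury to weeds and crops scored three weeks after application on a visual rating scale.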

green foxtail [2] = experiment: Test Example 5: herbicidal effect by foliage application, plastic box (Table 20, symbol G); type: in vivo, green foxtail (Setaria viridis); settings: foliage application, 320 g/ha, evaluated three weeks after application
In short: as §1

velvetleaf [3] = experiment: Test Example 5: herbicidal effect by foliage application, plastic box (Table 20, symbol M); type: in vivo, velvetleaf (Abutilon theophrasti); settings: foliage application, 320 g/ha, evaluated three weeks after application
In short: as §1

rice flat sedge = experiment: Test Example 3: herbicidal effect by foliage application, Wagner pot (Table 18, symbol E); type: in vivo, rice flat sedge (Cyperus iria); settings: 320 g/ha
In short: (§2)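 Plants were sown in alluvial soil held under 0.1–0.5 cm standing water and grown 14 days in a greenhouse at 25–30 °C. An emulsifiable formulation, water-diluted to the set dose, was then sprayed onto the foliage, and effects were scored three weeks later using previously defined criteria.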

velvetleaf [4] = experiment: Test Example 4: herbicidal effect by soil treatment (Table 19, symbol M); type: in vivo, velvetleaf (Abutilon theophrasti); settings: 320 g/ha
In short: (§3)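 Seeds were sown in sterilized diluvial soil and covered with about 1.5 cm of soil. An emulsion formulation diluted with water to a predetermined herbicide amount was sprayed evenly onto the soil surface. Plants grew in a greenhouse at 25° C. to 30° C., and the effect was scored three weeks after application using criteria from an earlier test.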

Japanese bulrush = experiment: Test Example 2: herbicidal activity, application during weed generation under submerged conditions (Table 17, symbol B); type: in vivo, Japanese bulrush (Schoenoplectus juncoides); settings: AAH 320 g/ha; application during weed generation, submerged conditions
In short: (§4)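 Mixed weed seedlings in alluvial soil under a 4 cm water layer, greenhouse-grown at 25–30° C. Compound given as a diluted emulsion into the floodwater at the 1–2 leaf stage; response graded after three weeks.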

late watergrass = experiment: Test Example 2: herbicidal activity, application during weed generation under submerged conditions (Table 17, symbol A); type: in vivo, late watergrass (Echinochloa oryzicola); settings: AAH 320 g/ha; application during weed generation, submerged conditions
In short: as §4

southern crabgrass [5] = experiment: Test Example 4: herbicidal effect by soil treatment (Table 19, symbol F); type: in vivo, southern crabgrass (Digitaria ciliaris); settings: 320 g/ha
In short: as §3

lambsquarters [6] = experiment: Test Example 5: herbicidal effect by foliage application, plastic box (Table 20, symbol O); type: in vivo, lambsquarters (Chenopodium album); settings: foliage application, 320 g/ha, evaluated three weeks after application
In short: as §1

windgrass [7] = experiment: Test Example 5: herbicidal effect by foliage application, plastic box (Table 20, symbol L); type: in vivo, windgrass (Apera spica-venti); settings: foliage application, 320 g/ha, evaluated three weeks after application
In short: as §1

blackgrass [8] = experiment: Test Example 5: herbicidal effect by foliage application, plastic box (Table 20, symbol J); type: in vivo, blackgrass (Alopecurus myosuroides); settings: foliage application, 320 g/ha, evaluated three weeks after application
In short: as §1

green foxtail [9] = experiment: Test Example 4: herbicidal effect by soil treatment (Table 19, symbol G); type: in vivo, green foxtail (Setaria viridis); settings: 320 g/ha
In short: as §3

windgrass [10] = experiment: Test Example 4: herbicidal effect by soil treatment (Table 19, symbol L); type: in vivo, windgrass (Apera spica-venti); settings: 320 g/ha
In short: as §3

redroot pigweed [11] = experiment: Test Example 4: herbicidal effect by soil treatment (Table 19, symbol N); type: in vivo, redroot pigweed (Amaranthus retroflexus); settings: 320 g/ha
In short: as §3

persian speedwell [12] = experiment: Test Example 4: herbicidal effect by soil treatment (Table 19, symbol R); type: in vivo, Persian speedwell (Veronica persica); settings: 320 g/ha
In short: as §3

wild oat [13] = experiment: Test Example 4: herbicidal effect by soil treatment (Table 19, symbol I); type: in vivo, wild oat (Avena fatua); settings: 320 g/ha
In short: as §3

chickweed [14] = experiment: Test Example 5: herbicidal effect by foliage application, plastic box (Table 20, symbol P); type: in vivo, common chickweed (Stellaria media); settings: foliage application, 320 g/ha, evaluated three weeks after application
In short: as §1

barnyard grass [15] = experiment: Test Example 4: herbicidal effect by soil treatment (Table 19, symbol H); type: in vivo, barnyard grass (Echinochloa crus-galli); settings: 320 g/ha
In short: as §3

persian speedwell [16] = experiment: Test Example 5: herbicidal effect by foliage application, plastic box (Table 20, symbol R); type: in vivo, Persian speedwell (Veronica persica); settings: foliage application, 320 g/ha, evaluated three weeks after application
In short: as §1

barnyard grass [17] = experiment: Test Example 3: herbicidal effect by foliage application, Wagner pot (Table 18, symbol H); type: in vivo, barnyard grass (Echinochloa crus-galli); settings: 320 g/ha
In short: as §2

blackgrass [18] = experiment: Test Example 4: herbicidal effect by soil treatment (Table 19, symbol J); type: in vivo, blackgrass (Alopecurus myosuroides); settings: 320 g/ha
In short: as §3

false cleavers [19] = experiment: Test Example 4: herbicidal effect by soil treatment (Table 19, symbol Q); type: in vivo, false cleavers (Galium spurium); settings: 320 g/ha
In short: as §3

chickweed [20] = experiment: Test Example 4: herbicidal effect by soil treatment (Table 19, symbol P); type: in vivo, common chickweed (Stellaria media); settings: 320 g/ha
In short: as §3

southern crabgrass [21] = experiment: Test Example 5: herbicidal effect by foliage application, plastic box (Table 20, symbol F); type: in vivo, southern crabgrass (Digitaria ciliaris); settings: foliage application, 320 g/ha, evaluated three weeks after application
In short: as §1

Italian ryegrass [22] = experiment: Test Example 4: herbicidal effect by soil treatment (Table 19, symbol K); type: in vivo, Italian ryegrass (Lolium multiflorum); settings: 320 g/ha
In short: as §3

Italian ryegrass [23] = experiment: Test Example 5: herbicidal effect by foliage application, plastic box (Table 20, symbol K); type: in vivo, Italian ryegrass (Lolium multiflorum); settings: foliage application, 320 g/ha, evaluated three weeks after application
In short: as §1

Chinese sprangletop = experiment: Test Example 3: herbicidal effect by foliage application, Wagner pot (Table 18, symbol D); type: in vivo, chinese sprangletop (Leptochloa chinensis); settings: 320 g/ha
In short: as §2

oval-leafed pondweed = experiment: Test Example 2: herbicidal activity, application during weed generation under submerged conditions (Table 17, symbol C); type: in vivo, oval-leafed pondweed (Monochoria vaginalis); settings: AAH 320 g/ha; application during weed generation, submerged conditions
In short: as §4

lambsquarters [24] = experiment: Test Example 4: herbicidal effect by soil treatment (Table 19, symbol O); type: in vivo, lambsquarters (Chenopodium album); settings: 320 g/ha
In short: as §3

wild oat [25] = experiment: Test Example 5: herbicidal effect by foliage application, plastic box (Table 20, symbol I); type: in vivo, wild oat (Avena fatua); settings: foliage application, 320 g/ha, evaluated three weeks after application
In short: as §1

redroot pigweed [26] = experiment: Test Example 5: herbicidal effect by foliage application, plastic box (Table 20, symbol N); type: in vivo, redroot pigweed (Amaranthus retroflexus); settings: foliage application, 320 g/ha, evaluated three weeks after application
In short: as §1

false cleavers [27] = experiment: Test Example 5: herbicidal effect by foliage application, plastic box (Table 20, symbol Q); type: in vivo, false cleavers (Galium spurium); settings: foliage application, 320 g/ha, evaluated three weeks after application
In short: as §1

CCCC(=O)Oc1c(C)nn(C)c(=O)c1-c1c(-c2ccc3c(c2)OCCO3)sc2ccc(F)cc12 [2-093]
herbicidal effect on H: barnyard grass (barnyard grass [1]): 3 (Herbicidal rate of 40% or more and less than 70%)
herbicidal effect on G: green foxtail (green foxtail [2]): 3 (Herbicidal rate of 40% or more and less than 70%)
herbicidal effect on M: velvetleaf (velvetleaf [3]): 5 (Herbicidal rate of 90% or more (almost completely withered))
herbicidal effect on E (rice flat sedge), rating 0-5 (rice flat sedge): 5 (Herbicidal rate of 90% or more (almost completely withered))
herbicidal effect rating, M: velvetleaf (velvetleaf [4]): 5 (Herbicidal rate of 90% or more (almost completely withered))
herbicidal effect rating, B: Japanese bulrush (Japanese bulrush): 5 (Herbicidal rate of 90% or more (almost completely withered))
herbicidal effect rating, A: late watergrass (late watergrass): 3 (Herbicidal rate of 40% or more and less than 70%)
herbicidal effect rating, F: southern crabgrass (southern crabgrass [5]): 3 (Herbicidal rate of 40% or more and less than 70%)
herbicidal effect on O: lambsquarters (lambsquarters [6]): 5 (Herbicidal rate of 90% or more (almost completely withered))
herbicidal effect on L: windgrass (windgrass [7]): 0 (Herbicidal rate of 5% or less (almost no effect))
herbicidal effect on J: blackgrass (blackgrass [8]): 0 (Herbicidal rate of 5% or less (almost no effect))
herbicidal effect rating, G: green foxtail (green foxtail [9]): 3 (Herbicidal rate of 40% or more and less than 70%)
herbicidal effect rating, L: windgrass (windgrass [10]): 0 (Herbicidal rate of 5% or less (almost no effect))
herbicidal effect rating, N: redroot pigweed (redroot pigweed [11]): 5 (Herbicidal rate of 90% or more (almost completely withered))
herbicidal effect rating, R: persian speedwell (persian speedwell [12]): 5 (Herbicidal rate of 90% or more (almost completely withered))
herbicidal effect rating, I: wild oat (wild oat [13]): 0 (Herbicidal rate of 5% or less (almost no effect))
herbicidal effect on P: chickweed (chickweed [14]): 5 (Herbicidal rate of 90% or more (almost completely withered))
herbicidal effect rating, H: barnyard grass (barnyard grass [15]): 3 (Herbicidal rate of 40% or more and less than 70%)
herbicidal effect on R: persian speedwell (persian speedwell [16]): 5 (Herbicidal rate of 90% or more (almost completely withered))
herbicidal effect on H (barnyard grass), rating 0-5 (barnyard grass [17]): 5 (Herbicidal rate of 90% or more (almost completely withered))
herbicidal effect rating, J: blackgrass (blackgrass [18]): 0 (Herbicidal rate of 5% or less (almost no effect))
herbicidal effect rating, Q: false cleavers (false cleavers [19]): 3 (Herbicidal rate of 40% or more and less than 70%)
herbicidal effect rating, P: chickweed (chickweed [20]): 4 (Herbicidal rate of 70% or more and less than 90%)
herbicidal effect on F: southern crabgrass (southern crabgrass [21]): 3 (Herbicidal rate of 40% or more and less than 70%)
herbicidal effect rating, K: Italian ryegrass (Italian ryegrass [22]): 0 (Herbicidal rate of 5% or less (almost no effect))
herbicidal effect on K: Italian ryegrass (Italian ryegrass [23]): 0 (Herbicidal rate of 5% or less (almost no effect))
herbicidal effect on D (Chinese sprangletop), rating 0-5 (Chinese sprangletop): 2 (Herbicidal rate of 20% or more and less than 40%)
herbicidal effect rating, C: oval-leafed pondweed (oval-leafed pondweed): 5 (Herbicidal rate of 90% or more (almost completely withered))
herbicidal effect rating, O: lambsquarters (lambsquarters [24]): 5 (Herbicidal rate of 90% or more (almost completely withered))
herbicidal effect on I: wild oat (wild oat [25]): 0 (Herbicidal rate of 5% or less (almost no effect))
herbicidal effect on N: redroot pigweed (redroot pigweed [26]): 5 (Herbicidal rate of 90% or more (almost completely withered))
herbicidal effect on Q: false cleavers (false cleavers [27]): 4 (Herbicidal rate of 70% or more and less than 90%)

COc1ccccc1-c1sc2ccc(Cl)cc2c1-c1c(OC)c(C)nn(C)c1=O [Compound No. 2-102, 4-(5-chloro-2-(2-methoxyphenyl)benzo[b]thiophen-3-yl)-5-methoxy-2,6-dimethylpyridazin-3(2H)-one]
melting point: 174 to 175 °C

COc1ccccc1-c1sc2ccc(SC(F)(F)F)cc2c1-c1c(OC)c(C)nn(C)c1=O [Compound No. 2-379, 5-methoxy-4-(2-(2-methoxyphenyl)-5-((trifluoromethyl)thio)benzo[b]thiophen-3-yl)-2,6-di methylpyridazin-3(2H)-one]
melting point: 152 to 155 °C
